# Assay results reported in patent US20230279016A1, “Tetrahydropyrazolopyrimidines and Related Analogs for Inhibiting YAP/TAZ-TEAD” (THE KATHOLIEKE UNIVERSITEIT LEUVEN, priority 2021, published 2023).
# Tested on: YAP/TAZ-TEAD transcription
# Assay: Reporter gene assay for measuring the inhibition of YAP/TAZ-TEAD transcription (TEAD-responsive element luciferase reporter in Hek293T cells)
# Format: cell-based
# Conditions: Hek293T cells transiently transfected with TEAD-responsive element luciferase reporter, 24 hours incubation
# How it was run: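 Hek293T cells transiently transfected with TEAD-responsive luciferase reporter, exposed to compound for 24 h at 37° C/5% CO2, then read by luminescence. Percent inhibition normalized to vehicle (0%) and positive control inhibitor (100%); EC50 reported as activity ranges.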
row,SMILES,EC50 [µM]
1,"CCC(=O)NCC1Cc2c(cnn2Cc2cccc(C(N)=O)c2)N(c2ccc(C(F)(F)F)cc2)C1 (stereo not shown) [Cpd. No. 082, 3-((6-(propionamide-methyl)-4-(4-(trifluoromethyl)phenyl)-4,5,6,7-tetrahydro-1H-pyrazolo[4,3-b]pyridin-1-yl)methyl)benzamide]",< 1
2,"CCC(=O)NCC1Cc2nn(Cc3cccc(C(N)=O)c3)cc2N(c2ccc(C(F)(F)F)cc2)C1 (stereo not shown) [Cpd. No. 083, 3-((6-(propionamide-methyl)-4-(4-(trifluoromethyl)phenyl)-4,5,6,7-tetrahydro-2H-pyrazolo[4,3-b]pyridin-2-yl)methyl)benzamide]",> 20

# Same assay, conditions: Homo sapiens, HEK-293T, 24 h, Hek293T cells transiently transfected with TEAD-responsive element luciferase reporter, 24 hours incubation
row,SMILES,EC50 [µM]
1,"C=CC(=O)NCC1CN(CC#Cc2ccccc2)c2ccnn2C1 (stereo not shown) [Cpd. No. 056, N-((4-(3-phenylprop-2-yn-1-yl)-4,5,6,7-tetrahydropyrazolo[1,5-a]pyrimidin-6-yl)-methyl)acrylamide]",< 1
2,"C=CC(=O)NC1CN(c2ccc(Cl)cc2)c2ccnn2C1 (stereo not shown) [Cpd. No. 066, N-(4-(4-chlorophenyl)-4,5,6,7-tetrahydropyrazolo[1,5-a]pyrimidin-6-yl)acrylamide]",< 1
3,"CCC(=O)NCC1Cc2c(cnn2C)N(c2ccc(OC(F)(F)F)cc2)C1 (stereo not shown) [Cpd. No. 074, N-((1-methyl-4-(4-(trifluoromethoxy)phenyl)-4,5,6,7-tetrahydro-1H-pyrazolo[4,3-b]pyridin-6-yl)methyl)propionamide]",> 20
4,"CCC(=O)NCC1Cc2nn(C)cc2N(c2ccc(OC(F)(F)F)cc2)C1 (stereo not shown) [Cpd. No. 075, N-((2-methyl-4-(4-(trifluoromethoxy)phenyl)-4,5,6,7-tetrahydro-2H-pyrazolo[4,3-b]pyridin-6-yl)methyl)propionamide]",1 to 20
5,"Cn1ncc2c1CC(CNS(C)(=O)=O)CN2c1ccc(C(F)(F)F)cc1 (stereo not shown) [Cpd. No. 076, N-((1-methyl-4-(4-(trifluoromethyl)phenyl)-4,5,6,7-tetrahydro-1H-pyrazolo[4,3-b]pyridin-6-yl)methyl)methanesulfonamide]",> 20
6,"Cn1cc2c(n1)CC(CNS(C)(=O)=O)CN2c1ccc(C(F)(F)F)cc1 (stereo not shown) [Cpd. No. 077, N-((2-methyl-4-(4-(trifluoromethyl)phenyl)-4,5,6,7-tetrahydro-2H-pyrazolo[4,3-b]pyridin-6-yl)methyl)methanesulfonamide]",1 to 20
7,"Cn1cc2c(n1)CC(CNS(C)(=O)=O)CN2c1ccc(OC(F)(F)F)cc1 (stereo not shown) [Cpd. No. 079, N-((2-methyl-4-(4-(trifluoromethoxy)phenyl)-4,5,6,7-tetrahydro-2H-pyrazolo[4,3-b]pyridin-6-yl)methyl)methanesulfonamide]",1 to 20
8,"C[C@H](NC(=O)NCC1CN(c2ccc(C(F)(F)F)cc2)c2ccnn2C1)c1ccccn1 (stereo partly drawn) [Cpd. No. 091, 1-((S)-1-(pyridin-2-yl)ethyl)-3-((4-(4-(trifluoromethyl)phenyl)-4,5,6,7-tetrahydropyrazolo[1,5-a]pyrimidin-6-yl)methyl)urea]",> 20
9,"CS(=O)(=O)NC(=O)C1CN(c2ccc(C(F)(F)F)cc2)c2ccnn2C1 (stereo not shown) [Cpd. No. 093, N-(methylsulfonyl)-4-(4-(trifluoromethyl)phenyl)-4,5,6,7-tetrahydropyrazolo[1,5-a]pyrimidine-6-carboxamide]",> 20

# Next, values leading:
row,EC50 [µM],SMILES
1,> 20,"CS(=O)(=O)NCC1CN(Cc2cccc(C(F)(F)F)c2)c2ccnn2C1 (stereo not shown) [Cpd. No. 054, N-((4-(3-(trifluoro-methyl)benzyl)-4,5,6,7-tetrahydropyrazolo[1,5-a]pyrimidin-6-yl)-methyl)methanesulfonamide]"
2,< 1,"C=CC(=O)NCC1CN(CC2CCCCC2)c2ccnn2C1 (stereo not shown) [Cpd. No. 055, N-((4-(cyclohexylmethyl)-4,5,6,7-tetrahydropyrazolo[1,5-a]pyrimidin-6-yl)-methyl)acrylamide]"
3,> 20,"C#CCN1CC(CNC(=O)C=C)Cn2nccc21 (stereo not shown) [Cpd. No. 057, N-((4-(prop-2-yn-1-yl)-4,5,6,7-tetrahydropyrazolo[1,5-a]pyrimidin-6-yl)-methyl)acrylamide]"
4,> 20,"CCC(=O)NC1CN(c2ccc(C(F)(F)F)cc2)c2ccnn2C1 (stereo not shown) [Cpd. No. 062, N-(4-(4-(trifluoromethyl)phenyl)-4,5,6,7-tetrahydropyrazolo[1,5-a]pyrimidin-6-yl)propionamide]"
5,< 1,"C=CC(=O)NC1CN(c2ccc(C(F)(F)F)c(F)c2)c2ccnn2C1 (stereo not shown) [Cpd. No. 064, N-(4-(3-fluoro-4-(trifluoromethyl)phenyl)-4,5,6,7-tetrahydropyrazolo[1,5-a]pyrimidin-6-yl)acrylamide]"
6,> 20,"CS(=O)(=O)NC1CN(c2ccc(C(F)(F)F)cc2)c2ccnn2C1 (stereo not shown) [Cpd. No. 067, N-(4-(4-(trifluoromethyl)phenyl)-4,5,6,7-tetrahydropyrazolo[1,5-a]pyrimidin-6-yl)methanesulfonamide]"
7,> 20,"CCC(=O)NCC1Cc2c(cnn2C)N(c2ccc(C(F)(F)F)cc2)C1 (stereo not shown) [Cpd. No. 072, N-((1-methyl-4-(4-(trifluoromethyl)phenyl)-4,5,6,7-tetrahydro-1H-pyrazolo[4,3-b]pyridin-6-yl)methyl)propionamide]"
8,< 1,"CCC(=O)NCC1Cc2nn(C)cc2N(c2ccc(C(F)(F)F)cc2)C1 (stereo not shown) [Cpd. No. 073, N-((2-methyl-4-(4-(trifluoromethyl)phenyl)-4,5,6,7-tetrahydro-2H-pyrazolo[4,3-b]pyridin-6-yl)methyl)propionamide]"
9,> 20,"Cn1ncc2c1CC(CNS(C)(=O)=O)CN2c1ccc(OC(F)(F)F)cc1 (stereo not shown) [Cpd. No. 078, N-((1-methyl-4-(4-(trifluoromethoxy)phenyl)-4,5,6,7-tetrahydro-1H-pyrazolo[4,3-b]pyridin-6-yl)methyl)methanesulfonamide]"
10,> 20,"CNC(=O)C1CN(c2ccc(C(F)(F)F)cc2)c2ccnn2C1 (stereo not shown) [Cpd. No. 092, N-methyl-4-(4-(trifluoromethyl)phenyl)-4,5,6,7-tetrahydropyrazolo[1,5-a]pyrimidine-6-carboxamide]"
11,< 1,"C=CC(=O)NCC1CN(c2ccc(C(F)(F)F)cc2)c2cnc(C(F)(F)F)n2C1 (stereo not shown) [Cpd. No. 094, N-((6-(trifluoromethyl)-1-(4-(trifluoromethyl)phenyl)-1,2,3,4-tetrahydroimidazo[1,5-a]pyrimidin-3-yl)methyl)acrylamide]"
